# Assay results reported in patent US9999611B2, “SIRT 1 activator including syringaresinol” (AMOREPACIFIC CORPORATION, priority 2011, dated 2018).
# Key:
# SIRT1 = SIRT1 expression recovering effect in gingival fibroblasts treated with cigarette smoke condensate (PCR); format: cell-based, human; details: cigarette smoke condensate 100 μg/mL, syringaresinol 50 or 100 μg/mL, 2 days, FIG. 2
# Description: Experiment was conducted to evaluate whether syringaresinol can recover SIRT1 expression that has been decreased due to smoking in gingival fibroblasts.
# Gingival fibroblasts were obtained from tissue biopsies of patients having healthy gingiva. The tissue biopsy was put in a 15-mL test tube holding Dulbecco's modified Eagle's medium (DMEM, Gibco Co., USA) and blood and impurities were removed by washing 3 times. Then, the tissue biopsy was transferred onto a 100-mm tissue culture dish holding DMEM containing 10% fetal bovine serum (Gibco Co., USA) and 1% antibiotics (penicillin G 10,000 units/mL, amphotericin B 25 μg/mL, Gibco Co., USA) and finely cut to 1 mm^2 using a No. 15 blade. Then, 5-6 pieces were uniformly distributed on a 60-mm culture dish. After incubation for about 30 minutes in a 5% CO2 incubator at 37° C. and 100% humidity such that the tissue was uniformly attached on the bottom of the culture dish, 3 mL of DMEM containing 10% fetal bovine serum and 1% antibiotics was added. The culture medium was exchanged with 2-3 day intervals until a single layer of cells was formed. […]
# The gingival fibroblasts subcultured 5-6 times were seeded onto a 24-well plate, with 1×10^4 cells per well. […] The expression pattern of the SIRT1 and GAPDH genes was monitored using the synthesized cDNA and predesigned primers and probes (Applied Biosystems; SIRT1, Hs01009006_m1; GAPDH, Hs99999905_m1). […]
# PGC-1α = PGC-1α mRNA expression promoting effect (qRT-PCR); format: cell-based, human; details: 50 μM, vs DMSO control, FIG. 12
# Description: Human adipocytes, hepatocytes and myocytes were treated with 50 μM syringaresinol in substantially the same manner as in Test Example 3 and washed with PBS. Then, RNA and cDNA were sequentially extracted therefrom. The mRNA expression of the energy metabolism-related genes PGC-1α and PGC-1β was analyzed by qRT-PCR. A result of comparing the expression of PGC-1α and PGC-1β with a control group treated only with DMSO is shown in FIG. 12 and FIG. 13, respectively.
# [1] = tested on: PGC-1α and PGC-1β, IL-10 and arginase I; assay: Change in human PBMC type: expression of type 2 immune cell-related genes; format: cell-based; details: human PBMCs, 20, 50 or 100 μM, vs DMSO; FIG. 21
# Description: After treating human PBMCs with 20, 50 or 100 μM syringaresinol or DMSO in substantially the same manner as in Test Example 11, RNA was extracted from the PBMCs and cDNA was synthesized therefrom in order to measure the expression of type 2 immune cell-related genes. The expression pattern of the transcriptional regulators necessary for inducement of differentiation to type 2 immune cells, such as PGC-1α and PGC-1β, and the genes mainly expressed in type 2 immune cells, such as IL-10 and arginase I, was measured using the synthesized cDNA.
smiles,measurement,setting,value
COc1cc(C2OCC3C(c4cc(OC)c(O)c(OC)c4)OCC23)cc(OC)c1O (centres unmarked) [syringaresinol],SIRT1 expression,SIRT1,"increased SIRT1 expression in gingival fibroblasts, which had been decreased due to smoking, in a concentration-dependent manner"
same,expression of PGC-1α,PGC-1α; human adipocytes,increased the expression
same,expression of PGC-1α,PGC-1α; human hepatocytes,increased the expression
same,expression of PGC-1α,PGC-1α; human myocytes,increased the expression
same,expression of type 2 immune cell-specific marker genes,[1],significantly increased expression
